For data set [1], the system named is E. cloacae A-9569. Description: animal or person. The settings on record: Enterobacter cloacae, A9569, in Mus musculus, im, read-out: PD50 /Treatment.
Description: (§1) The PD50 (dose in mg/kg required to give protection to 50% of the infected mice) is indicated.
(§2) Treatment Schedule: Mice were treated i.m. with drugs 0 and 2 hours
(§3) 3.5 hours (all others); 5 mice were used for each test.
Data set [2] has as its system P. aeruginosa A20481. Put plainly: Protective effect, intramuscular treatment of infected mice. The data set is classed as in vivo. Conditions: Pseudomonas aeruginosa, A20481, im; i.m.; challenge 3 × 10^4; read-out: PD50 /Treatment.
Description: as §1, §2, §3
Data set [3] relates to S. marcescens A20335. Described as above. Conditions: Serratia marcescens, A20335, im; i.m.; challenge 9 × 10^6; read-out: PD50 /Treatment. It is filed as in vivo.
Description: as §1, §2, §3
Data set [4] concerns M. morganii A15149. The description is as above. It is filed as in vivo. Conditions: Morganella morganii, A15149, im; i.m.; challenge 7 × 10^5; read-out: PD50 /Treatment.
Description: as §1, §2, §3
Data set [5] concerns P. aeruginosa A-9843A. Put plainly: Minimum Inhibitory Concentration, tube dilution. The data set is classed as cell-based. The settings on record: Pseudomonas aeruginosa, A9843A.
For data set [6], the system named is H. influenzae A20178. Put plainly: Minimum Inhibitory Concentration, tube dilution. The settings on record: Haemophilus influenzae, overnight 37° C. It is filed as cell-based.
Data set [7] concerns P. rettgeri A22424. Put plainly: Minimum Inhibitory Concentration, tube dilution. The data set is classed as cell-based. The settings on record: Providencia rettgeri, overnight 37° C., read-out: MIC.
The subject of data set [8] is B. fragilis A22696. Put plainly: Minimum Inhibitory Concentration, tube dilution. The data set is classed as cell-based. The settings on record: Bacteroides fragilis, overnight 37° C., read-out: MIC.
For data set [9], the system named is H. influenzae A21518. Description: Minimum Inhibitory Concentration, tube dilution. The data set is classed as cell-based. Conditions: Haemophilus influenzae, overnight 37° C.
Data set [10] concerns P. aeruginosa A-9843a. Put plainly: Protective effect, intramuscular treatment of infected mice. The data set is classed as in vivo. Conditions: Pseudomonas aeruginosa, A9843A, im; challenge 3 × 10^4; Historical data; read-out: PD50 /Treatment.
Description: as §1, §2, §3
Data set [11] deals with P. vulgaris A21559. Put plainly: Minimum Inhibitory Concentration, tube dilution. The data set is classed as cell-based. Conditions: Proteus vulgaris, A21559, overnight 37° C.
A short description of data set [12]: in vivo. The settings on record: mouse.
A short description of data set [13]: Urinary recovery in mice after intramuscular administration. It is filed as in vivo. Conditions: mouse, urine, im, 20 mg/kg, 20 mg/kg i.m., read-out: Percentage of Dose Recovered (urine). The source says:
| a single test; 4 mice per compound.

The test system of data set [14] is S. faecalis A20688. Put plainly: Minimum Inhibitory Concentration, tube dilution. It is filed as cell-based. Conditions: Enterococcus faecalis.
The nature of data set [15]: Toxicity after intracranial administration to mice. The settings on record: mouse, in vivo.
Data set [16] relates to S. pyogenes A-9604. Put plainly: Minimum Inhibitory Concentration, tube dilution. The data set is classed as cell-based. The settings on record: Streptococcus pyogenes, A9604, overnight 37° C.
The subject of data set [17] is S. aureus A-9606. Put plainly: Protective effect, intramuscular treatment of infected mice. It is filed as in vivo. Conditions: Staphylococcus aureus, A9606, im; i.m.; challenge 1 × 10^9; read-out: PD50 /Treatment.
Description: as §1, §2, §3
The nature of data set [18]: Blood levels in mice after intramuscular administration. The data set is classed as in vivo. Conditions: mouse, im, 20 mg/kg i.m. The text has this:
a single test; 4 mice used per compound.

The test system of data set [19] is K. pneumoniae A-9664. Put plainly: Protective effect, intramuscular treatment of infected mice. The data set is classed as in vivo. Conditions: Klebsiella pneumoniae, A9664, im; i.m.; challenge 7 × 10^6; read-out: PD50 /Treatment.
Description: as §1, §2, §3
Data set [20] can be described thus: Half-life in phosphate buffer pH 7.4. The data set is classed as physicochemical. Conditions: phosphate buffer. The essentials:
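Compound at 10^-4 M in phosphate buffer pH 7.4 at 36.8° C; τ1/2 reported from this incubation.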

The subject of data set [21] is H. influenzae A21522. Description: Minimum Inhibitory Concentration, tube dilution. It is filed as cell-based. Conditions: Haemophilus influenzae, overnight 37° C.
Data set [22] deals with H. influenzae A-9833. Description: Minimum Inhibitory Concentration, tube dilution. It is filed as cell-based. The settings on record: Haemophilus influenzae, A9833.
Data set [23] deals with S. aureus A-9537. Description: Minimum Inhibitory Concentration, tube dilution. The settings on record: Staphylococcus aureus, read-out: MIC. It is filed as cell-based.
The test system of data set [24] is P. aeruginosa A20599. Put plainly: Protective effect, intramuscular treatment of infected mice. It is filed as in vivo. Conditions: Pseudomonas aeruginosa, A20599, im; i.m.; challenge 9 × 10^4; read-out: PD50 /Treatment.
Description: as §1, §2, §3
The subject of data set [25] is E. coli A20341-1. Put plainly: Minimum Inhibitory Concentration, tube dilution. The data set is classed as cell-based. The settings on record: Escherichia coli, A203411, 10^-4.
For data set [26], the system named is E. coli A15119. Put plainly: Minimum Inhibitory Concentration, tube dilution. It is filed as cell-based. The settings on record: Escherichia coli, A15119, 10^-4 dil.
Data set [27] has as its system S. aureus A-9606 (Pen-res.). Put plainly: Minimum Inhibitory Concentration, tube dilution. The data set is classed as cell-based. The settings on record: Staphylococcus aureus.
Data set [28] concerns P. rettgeri A15167-2. Description: Protective effect, intramuscular treatment of infected mice. It is filed as in vivo. Conditions: Providencia rettgeri, A151672, im; i.m.; challenge 3 × 10^7; read-out: PD50 /Treatment.
Description: as §1, §2, §3
Data set [29] has as its system P. mirabilis A-9900. Put plainly: animal or person. The settings on record: Proteus mirabilis, A9900, in Mus musculus, im, read-out: PD50 /Treatment, i.m.; challenge 4 × 10^6.
Description: as §1, §2, §3
In data set [30] the test system is S. pneumoniae A-9585. Description: Minimum Inhibitory Concentration, tube dilution. Conditions: Streptococcus pneumoniae, A9585, overnight 37° C. It is filed as cell-based.
The test system of data set [31] is M. morganii A15153. Put plainly: Minimum Inhibitory Concentration, tube dilution. The data set is classed as cell-based. The settings on record: Morganella morganii, A15153, overnight 37° C.; table 6.
Data set [32] deals with P. aeruginosa A21213. Description: Minimum Inhibitory Concentration, tube dilution. Conditions: Pseudomonas aeruginosa, A21213, overnight 37° C.; table 6; read-out: MIC. The data set is classed as cell-based.
The test system of data set [33] is P. aeruginosa A9843A. Description: animal or person. The data set is classed as in vivo, mice. Conditions: Pseudomonas aeruginosa, in Mus musculus, im, read-out: PD50 /treatment.
Excerpt: as §1
The test system of data set [34] is K. pneumoniae A-9664. Put plainly: Minimum Inhibitory Concentration, tube dilution. The data set is classed as cell-based. The settings on record: Klebsiella pneumoniae, A9664, overnight 37° C.; table 6.
Data set [35] deals with P. mirabilis A9900. Description: Protective effect, intramuscular treatment of infected mice (table 8). It is filed as in vivo. Conditions: Proteus mirabilis, A9900, im; i.m. 0 and 2 h post-infection; 4×10^7 organisms i.p.; read-out: PD50 /treatment.
Excerpt: as §1
Data set [36] has as its system S. aureus A15097 (Meth-res.). Description: Minimum Inhibitory Concentration, tube dilution. It is filed as cell-based. The settings on record: Staphylococcus aureus, table 6.
In data set [37] the test system is S. marcescens A20019. Put plainly: Minimum Inhibitory Concentration, tube dilution. The data set is classed as cell-based. The settings on record: Serratia marcescens, A20019, overnight 37° C.; table 6.
Data set [38] deals with P. mirabilis A-9900. Description: Minimum Inhibitory Concentration, tube dilution. Conditions: Proteus mirabilis, A9900, overnight 37° C.; table 6. The data set is classed as cell-based.
Data set [39] concerns various Pseudomonas species. The settings on record: cited from earlier work.

Converted amounts (≈) assume the structure as drawn. Read-outs that look alike come from different tables or passages of the source.

Turning to `C[C@@H](O)[C@H]1C(=O)N2C(C(=O)[O-])=C(SCC[n+]3ccccc3)C[C@H]12` [Example 1, 3-[2-(1-Pyridinium)ethylthio]-6α-[1-(R)-hydroxyethyl]-7-oxo-1-azabicyclo (3.2.0)-hept-2-ene-2-carboxylate], the ED50 in data set [1] worked out at 0.4 mg/kg; in data set [2], 0.8 mg/kg; in data set [3], 3.3 mg/kg; in [4], 4.4 mg/kg; in data set [10], 0.8 mg/kg; in [17], 0.11 mg/kg. Moreover, the ED50 in data set [19] amounted to 7.7 mg/kg; in data set [24] it was 3 mg/kg; in [28] it was 5.7 mg/kg; in data set [29], 19 mg/kg. The MIC in [5] is 2 µg/mL (≈ 5.98 µM); in data set [6], 8 µg/mL (≈ 23.9 µM); in data set [7], 0.5 µg/mL (≈ 1.5 µM); in [8], 0.5 µg/mL (≈ 1.5 µM); in [9], 8 µg/mL (≈ 23.9 µM); in data set [11] it was 0.03 µg/mL (≈ 0.0897 µM). Moreover, the MIC in data set [14] (A20688) amounted to 0.5 µg/mL (≈ 1.5 µM); in data set [16], 0.008 µg/mL (≈ 0.0239 µM); in data set [21], 8 µg/mL (≈ 23.9 µM); in [22], 8 µg/mL (≈ 23.9 µM); in data set [23] (A9537, + 50% serum) it was 0.03 µg/mL; in data set [23] (A9537, overnight 37° C.), 0.008 µg/mL (≈ 0.0239 µM). In addition, the MIC turned out to be 0.03 µg/mL (≈ 0.0897 µM) in data set [25], 0.03 µg/mL (≈ 0.0897 µM) in [26], 0.016 µg/mL (≈ 0.0478 µM) in [27] (Pen-res.) and 0.002 µg/mL (≈ 0.00598 µM) in data set [30]. Also, the NOAEL (commonly the highest dose or exposure tested at which no adverse effect was seen) in data set [12] is over 40 mg/kg. Also, in [13] (0-3 hours), the dose excreted at 3 h is 23.3%. Further, the dose excreted at 24 h in data set [13] (0-24 hours) was found to be 24.2 ± 5.3%; in data set [13] (6-24 hours), 0.4%. Moreover, the dose excreted at 6 h in data set [13] (3-6 hours) amounted to 0.5%. Also, the LD50 (in general, the dose at which mortality reaches 50%) in data set [15] was over 40 mg/kg. Besides, the AUC (usually the area under the concentration-time curve, a measure of exposure) in data set [18] is 6400 ng·h/mL. Moreover, in data set [18], the half-life (usually the time in which the quantity being followed falls by half) was determined as 9 min. In data set [20] (pH 7.4, τ1/2 (half-life)), this compound showed a half-life at 100 µM of 13.5 h.
`C[C@@H](O)[C@H]1C(=O)N2C(C(=O)[O-])=C(SCC[n+]3cccc(N)c3)C[C@H]12` [Example 14, (5R, 6S)-3-[2-(3-aminopyridinio)ethylthio]-6-[1-(R)-hydroxyethyl]-7-oxo-1-azabicyclo[3.2.0]-hept-2-ene-2-carboxylate]: the MIC was 0.03 µg/mL (≈ 0.0859 µM) in data set [31]; 1 µg/mL (≈ 2.86 µM) in data set [32]; 2 µg/mL (≈ 5.72 µM) in [5] (overnight 37° C., table 6, read-out: MIC); 0.016 µg/mL (≈ 0.0458 µM) in data set [11] (table 6); 0.5 µg/mL (≈ 1.43 µM) in [14] (A20688, overnight 37° C., table 6, read-out: MIC); 0.004 µg/mL (≈ 0.0114 µM) in data set [16] (table 6). Moreover, the MIC in [34] stood at 0.06 µg/mL (≈ 0.172 µM); in data set [36] it was 0.008 µg/mL (≈ 0.0229 µM); in data set [23] (A9537, 50% serum, table 6), 0.016 µg/mL (≈ 0.0458 µM); in data set [23] (A9537, overnight 37° C., table 6), 0.008 µg/mL (≈ 0.0229 µM); in [37], 0.06 µg/mL (≈ 0.172 µM); in data set [27] (Pen-res, table 6), 0.008 µg/mL (≈ 0.0229 µM). Besides, the results for the MIC in data set [38] and in data set [30] (table 6) were 0.03 µg/mL (≈ 0.0859 µM) and 0.002 µg/mL (≈ 0.00572 µM), respectively. The ED50 was found to be 0.78 mg/kg in [33] and 5.4 mg/kg in [35]. The half-life in [20] (pH 7.4, t1/2 (half-life)) is 18.5 h.
With `C[C@@H](O)[C@H]1C(=O)N2C(C(=O)O)=C(SCCN)C[C@H]12` [Thienamycin, thienamycin], the “activity against various Pseudomonas species” value in data set [39] is on record as “notable activity”.

The record behind these values is patent US4642341A, “Carbapenem antibiotics” (priority 1985, dated 1987).
